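Results reflect a 48-hour exposure of cells in 96-well plates to compound at five concentrations. TGI denotes the concentration required for complete inhibition of growth.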 Some results are limits rather than exact numbers.

Test systems include MOLT-4 leukemia; MDA-MB-435; HT29 colon; NCI/ADR-RES ovarian; HL-60(TB) leukemia; SK-MEL-28 melanoma; SNB-19 CNS; SK-MEL-5 melanoma; A498 renal; RPMI-8226 leukemia; IGROV1 ovarian; KM12 colon; RXF 393 renal; DU-145 prostate; OVCAR-3 ovarian; 786-0 renal; UACC-257 melanoma.
Test in all cases: NCI anticancer screen, dose series, 48 h

Take `FC(F)(F)c1ccc2c(-c3cc[nH]c3)ccnc2c1`: the TGI in the assay on MOLT-4 leukemia is 59.3 µM; in the assay on MDA-MB-435, > 100 µM; with HT29 colon, 39.2 µM; in the assay on NCI/ADR-RES ovarian, > 100 µM; with HL-60(TB) leukemia it was 42.2 µM; in the assay on SK-MEL-28 melanoma, > 100 µM. Besides, the TGI is 58.8 µM in the assay on SNB-19 CNS; 43.3 µM in the assay with SK-MEL-5 melanoma; 51.8 µM in the assay with A498 renal; 95.2 µM in the assay with RPMI-8226 leukemia; > 100 µM in the assay with IGROV1 ovarian; > 100 µM with KM12 colon. The TGI in the assay with RXF 393 renal was 46.2 µM; in the assay with DU-145 prostate it was > 100 µM; in the assay with OVCAR-3 ovarian it was 88 µM; with 786-0 renal, 32.1 µM; in the assay on UACC-257 melanoma, > 100 µM.

In the case of `Oc1ccc(Br)cc1C=Nc1c(NC2CCCCC2)oc2ccc(Br)cc12`, the TGI in the assay with MDA-MB-435 is > 100 µM; in the assay with HT29 colon, 78.4 µM; with NCI/ADR-RES ovarian it was > 100 µM; in the assay on HL-60(TB) leukemia it was 21.8 µM; with SK-MEL-28 melanoma it was > 100 µM; with SNB-19 CNS it was > 100 µM. Besides, the TGI in the assay with SK-MEL-5 melanoma was > 100 µM; in the assay with A498 renal, > 100 µM; in the assay with RPMI-8226 leukemia it was > 100 µM; in the assay with IGROV1 ovarian it was > 100 µM; with KM12 colon, > 100 µM; in the assay on RXF 393 renal, 27.1 µM. The TGI in the assay with DU-145 prostate is > 100 µM; in the assay on OVCAR-3 ovarian, 68.6 µM; in the assay on 786-0 renal, > 100 µM; in the assay on UACC-257 melanoma, > 100 µM.

As to `COc1ccc(C2(CC(C)C)CCNC2)cc1OC` (configuration not stated), the TGI with MDA-MB-435, with HT29 colon, in the assay on NCI/ADR-RES ovarian, with HL-60(TB) leukemia, in the assay on SK-MEL-28 melanoma and in the assay with SNB-19 CNS was > 100 µM in each case. Further, the TGI with SK-MEL-5 melanoma, in the assay with A498 renal, in the assay with RPMI-8226 leukemia, in the assay on IGROV1 ovarian, in the assay on KM12 colon and with RXF 393 renal was > 100 µM in each case. For the same molecule, the TGI with DU-145 prostate, in the assay on 786-0 renal and in the assay with UACC-257 melanoma was > 100 µM each time.

Take `COC(=O)C1(Cc2ccccc2)Cc2ccccc2C1O` (configuration not stated): the TGI with MOLT-4 leukemia, with MDA-MB-435, in the assay with HT29 colon, in the assay with NCI/ADR-RES ovarian, in the assay with HL-60(TB) leukemia and in the assay with SK-MEL-28 melanoma was > 100 µM in each case. The TGI in the assay on SK-MEL-5 melanoma, in the assay on A498 renal, in the assay with RPMI-8226 leukemia, with IGROV1 ovarian, in the assay on KM12 colon and in the assay on RXF 393 renal was > 100 µM each time. Besides, the TGI with DU-145 prostate, in the assay with OVCAR-3 ovarian, with 786-0 renal and in the assay on UACC-257 melanoma was > 100 µM each time.

For `NCCCN(CCCCN(CCCN)Cc1ccccc1)Cc1ccccc1`, the TGI with MOLT-4 leukemia was 46 µM; in the assay on MDA-MB-435, > 100 µM; in the assay with HT29 colon, 44.1 µM; with NCI/ADR-RES ovarian, > 100 µM; with HL-60(TB) leukemia, > 100 µM; in the assay with SK-MEL-28 melanoma it was > 100 µM. The TGI is 22.5 µM with SNB-19 CNS; > 100 µM in the assay with SK-MEL-5 melanoma; > 100 µM in the assay with A498 renal; > 100 µM in the assay on RPMI-8226 leukemia; 37.1 µM in the assay with IGROV1 ovarian; > 100 µM with KM12 colon. For the same molecule, the TGI in the assay on RXF 393 renal was > 100 µM; with DU-145 prostate, > 100 µM; in the assay with 786-0 renal, 77.5 µM; in the assay with UACC-257 melanoma it was > 100 µM.

As for `Cn1cc(NC(=O)Nc2cc(C(=O)Nc3cc(C(=O)Nc4ccc5cc(S(=O)(=O)O)cc(S(=O)(=O)O)c5c4)n(C)c3)n(C)c2)cc1C(=O)Nc1cc(C(=O)Nc2ccc3cc(S(=O)(=O)O)cc(S(=O)(=O)O)c3c2)n(C)c1`, the TGI with MOLT-4 leukemia, in the assay with MDA-MB-435, in the assay on HT29 colon, with NCI/ADR-RES ovarian, in the assay with HL-60(TB) leukemia and with SK-MEL-28 melanoma was > 100 µM in each case. Besides, the TGI with SNB-19 CNS, with SK-MEL-5 melanoma, in the assay on RPMI-8226 leukemia, with IGROV1 ovarian, in the assay with KM12 colon and in the assay with RXF 393 renal was > 100 µM in each case. The TGI in the assay with DU-145 prostate, with OVCAR-3 ovarian, in the assay with 786-0 renal and in the assay with UACC-257 melanoma was > 100 µM each time.

With `Cc1cccc(N=Nc2c(C)nn(C(=O)CC(=O)Nc3ccc(Cl)cc3)c2C)c1`, the TGI in the assay on MOLT-4 leukemia, with MDA-MB-435, in the assay with HT29 colon, with NCI/ADR-RES ovarian, in the assay with HL-60(TB) leukemia and in the assay on SK-MEL-28 melanoma was > 100 µM throughout. In addition, the TGI in the assay with SNB-19 CNS, in the assay with SK-MEL-5 melanoma, with A498 renal, in the assay with RPMI-8226 leukemia, with KM12 colon and in the assay with RXF 393 renal was > 100 µM in each case. Besides, the TGI in the assay on DU-145 prostate, in the assay with OVCAR-3 ovarian, with 786-0 renal and in the assay with UACC-257 melanoma was > 100 µM each time.
